Assay results reported in US12582643B2, “Tasquinimod or a pharmaceutically acceptable salt thereof for use in combination therapy” (ACTIVE BIOTECH AB, priority 2020, dated 2026).

Columns and labels:
[1] = tested on: Human NCI-H929 (H929) multiple myeloma cells; experiment: H929 human xenograft model, tasquinimod with bortezomib or dexamethasone (Example 1); format: in vivo; settings: s.c. H929 in NSG mice; TQ 30 mg/kg drinking water; VEL 0.5 mg/kg i.v. every 4 days; compared to control mice; FIG. 1
Description: Human NCI-H929 (H929) multiple myeloma cells were inoculated subcutaneously in NSG mice. Tumour-bearing mice were treated with vehicle (VC), tasquinimod (TQ) 30 mg/kg ad lib in the drinking water starting when there were palpable tumors (i.e. day 18 after tumor inoculation); bortezomib (VEL), 0.5 mg/kg, i.v. every 4 days; dexamethasone (DEX), 10 mg/kg, i.p., 5 days on, 2 days off; or the combinations (TQ+DEX) and (TQ+VEL), and. Statistics: Two-way ANOVA; p-values VC vs TQ p=0.0009, VC vs VEL p=0.041, VC vs DEX p=0.0081, DEX vs DEX+TQ ns, TQ vs TQ+VEL p=0.0002, VEL vs VEL+TQ p=0.0361. The results are illustrated in FIG. 1.

MM1.S cells = experiment: Human MM1.S xenograft model of multiple myeloma, tasquinimod with lenalidomide (Example 2); format: in vivo; settings: s.c. MM1.S in NSG mice; TQ 30 mg/kg/day drinking water; LEN 5 mg/kg oral gavage; from day 14; compared to control mice; FIG. 2
Description: The effect of tasquinimod in combination with lenalidomide was studied in a human MM1.S model of multiple myeloma. The MM1.S cells were established from a patient with IgA myeloma with characteristics typical of human myeloma cells (Greenstein et al., Exp Hematol. 2003 April; 31(4):271-82). MM1.S model was established by subcutaneous inoculation of 5×10^6 MM1.S cells into NSG mice. Treatment with tasquinimod (TQ), 30 mg/kg/day in the drinking water; lenalidomide (LEN), 5 mg/kg via oral gavage, 5 consecutive days with 2 days breaks until the endpoint, or the combination of tasquinimod and lenalidomide (TQ+LEN), started when the tumors were measurable (day 14 after tumor cell injection). Tumor size was monitored using a caliper and tumor volume was calculated. Differences between groups were evaluated by using two-way ANOVA; p-values: TQ vs TQ+LEN p=0.0001, LEN vs LEN+TQ p=0.0183. The results are illustrated in FIG. 2.

| SMILES | multiple myeloma tumor growth (tumour area), result in words [1] | multiple myeloma growth (tumour volume), result in words (MM1.S cells) |
| --- | --- | --- |
| CC(C)C[C@H](NC(=O)[C@H](Cc1ccccc1)NC(=O)c1cnccn1)B(O)O [bortezomib, [(1R)-3-methyl-1-[[(2S)-3-phenyl-2-(pyrazine-2-carbonylamino)propanoyl]amino]butyl]-boronic acid] | reduced the multiple myeloma tumor growth |  |
| Nc1cccc2c1CN(C1CCC(=O)NC1=O)C2=O (stereo not shown) [lenalidomide, 3-(4-amino-1-oxoisoindolin-2-yl)piperidine-2,6-dione] |  | reduced the multiple myeloma growth |
| COc1cccc2c1c(O)c(C(=O)N(C)c1ccc(C(F)(F)F)cc1)c(=O)n2C [tasquinimod, 4-hydroxy-5-methoxy-N,1-dimethyl-2-oxo-N-[4-(trifluoromethyl)phenyl]-1,2-dihydroquinoline-3-carboxamide] | reduced the multiple myeloma tumor growth | reduced the multiple myeloma growth |
